Measured values from BindingDB's records for patent US10196374 (Astrazeneca, 2019).

Molecular target: T1, Glucocorticoid receptor (Homo sapiens, UniProt P04150)
T1 sequence (P04150 whole entry): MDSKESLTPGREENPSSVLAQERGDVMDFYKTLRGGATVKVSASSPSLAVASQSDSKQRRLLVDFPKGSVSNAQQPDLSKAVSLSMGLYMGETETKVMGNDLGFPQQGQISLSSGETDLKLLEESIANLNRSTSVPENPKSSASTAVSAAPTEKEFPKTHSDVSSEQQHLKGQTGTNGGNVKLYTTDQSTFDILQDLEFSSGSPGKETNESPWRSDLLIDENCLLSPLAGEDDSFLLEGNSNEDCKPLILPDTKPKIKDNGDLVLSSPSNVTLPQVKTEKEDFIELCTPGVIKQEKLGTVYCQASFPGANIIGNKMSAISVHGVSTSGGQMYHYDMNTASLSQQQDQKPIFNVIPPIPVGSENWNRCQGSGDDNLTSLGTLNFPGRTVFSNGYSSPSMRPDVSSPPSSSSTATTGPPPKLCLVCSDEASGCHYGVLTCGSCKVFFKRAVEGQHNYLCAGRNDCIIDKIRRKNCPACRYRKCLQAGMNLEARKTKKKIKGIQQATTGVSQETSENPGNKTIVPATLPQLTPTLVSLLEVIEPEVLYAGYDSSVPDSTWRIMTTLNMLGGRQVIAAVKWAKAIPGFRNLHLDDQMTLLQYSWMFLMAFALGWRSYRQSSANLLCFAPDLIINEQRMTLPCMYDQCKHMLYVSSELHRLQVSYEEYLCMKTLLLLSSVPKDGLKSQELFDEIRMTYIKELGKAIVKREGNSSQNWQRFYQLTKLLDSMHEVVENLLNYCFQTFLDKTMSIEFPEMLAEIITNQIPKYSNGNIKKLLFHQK
Assay: GRE Antagonist Assay
Source text: The generated cell line allows for identification of compounds showing antagonist activity at the human glucocorticoid receptor (GR) via reduction of LacZ gene expression. Dexamethasone-activated GR binds to the Glucocorticoid Response Element (GRE) in the promoter of the LacZ gene and transcription is initiated.

CC(C)[C@H](NC(=O)C(C)(F)F)[C@H](Oc1ccc2c(cnn2-c2ccc(=O)n(C)c2)c1)c1ccccc1 [US10196374, Example 1]
IC50: 0.158 µM
